According to patent publication US20080182882A1, “N-HYDROXYAMIDINOHETEROCYCLES AS MODULATORS OF INDOLEAMINE 2,3-DIOXYGENASE” (INCYTE CORPORATION, priority 2006, published 2008):

Legend:
LLC tumors = LLC tumors in C57B1/6 mice, versus placebo (Friberg, M., et al); cited from earlier work
P815 tumor = settings: pre-immunized immune-competent mice, IDO-expressing tumors (Uyttenhove, C., et al); cited from earlier work
[1] = molecular target: T1, Human indoleamine 2,3-dioxygenasae (IDO) (Homo sapiens, UniProt P14902); assay: Human indoleamine 2,3-dioxygenase (IDO) enzyme assay; type: biochemical; settings: 95 nM IDO, 2 mM D-Trp, pH 6.5, room temperature
T1 construct: His tag (N); made in house; host or cells: E. coli
Method: Human indoleamine 2,3-dioxygenasae (IDO) with an N-terminal His tag was expressed in E. coli and purified to homogeneity. IDO catalyzes the oxidative cleavage of the pyrrole ring of the indole nucleus of tryptophan to yield N′-formylkynurenine. The assays were performed at room temperature as described in the literature using 95 nM IDO and 2 mM D-Trp in the presence of 20 mM ascorbate, 5 μM methylene blue and 0.2 mg/mL catalase in 50 mM potassium phosphate buffer (pH 6.5). The initial reaction rates were recorded by continuously following the absorbance increase at 321 nm due to the formation of N′-formlylkynurenine. See: Sono, M., Taniguchi, T., Watanabe, Y., and Hayaishi, O. (1980) J. Biol. Chem. 255, 1339-1345 Compound activity is provided in Table 2 below.

[2] = molecular target: T2, indoleamine 2,3-dioxygenase (IDO) in HeLa cells (Homo sapiens, UniProt P14902); assay: HeLa cell-based indoleamine 2,3-dioxygenase (IDO)/kynurenine assay; settings: IFN-γ 50 ng/mL, 48 hours incubation, kynurenine at 480 nm
T2 construct: host or cells: HeLa cells, IFN-γ induced
Method: HeLa cells (#CCL-2) can be obtained from the American Type Tissue Culture Collection (ATCC, Manassas, Va.) and routinely maintained in minimum essential medium (eagle) with 2 mM L-glutamine and Earle's BSS adjusted to contain 1.5 g/L sodium bicarbonate, 0.1 mM non-essential amino acids, 1 mM sodium pyruvate and 10% fetal bovine serum (all from Invitrogen). Cells are kept at 37° C. in a humidified incubator supplied with 5% CO2. The assay is performed as follows: HeLa cells are seeded in a 96 well culture plate at a density of 5×10^3 per well and grown overnight. On the next day, IFN-γ (50 ng/mL final concentration) and serial dilutions of compounds (in total volume of 200 μL culture medium) are added into cells. After 48 hours of incubation, 140 μL of the supernatant per well is transferred to a new 96 well plate. 10 μL of 6.1 N trichloroacetic acid (#T0699, Sigma) is mixed into each well and incubated at 50° C. for 30 min to hydrolyze N-formylkynurenine produced by indoleamine 2,3-dioxygenase to kynurenine. […] The yellow color derived from Kynurenine is measured at 480 nm using a SPECTRAmax 250 microplate reader (Molecular Devices). […] The percent inhibition at individual concentrations is determined and the average values of duplicates are obtained. The data is analyzed by using nonlinear regression to generate IC50 values (Prism Graphpad). […]

T1 sequence (P14902 whole entry): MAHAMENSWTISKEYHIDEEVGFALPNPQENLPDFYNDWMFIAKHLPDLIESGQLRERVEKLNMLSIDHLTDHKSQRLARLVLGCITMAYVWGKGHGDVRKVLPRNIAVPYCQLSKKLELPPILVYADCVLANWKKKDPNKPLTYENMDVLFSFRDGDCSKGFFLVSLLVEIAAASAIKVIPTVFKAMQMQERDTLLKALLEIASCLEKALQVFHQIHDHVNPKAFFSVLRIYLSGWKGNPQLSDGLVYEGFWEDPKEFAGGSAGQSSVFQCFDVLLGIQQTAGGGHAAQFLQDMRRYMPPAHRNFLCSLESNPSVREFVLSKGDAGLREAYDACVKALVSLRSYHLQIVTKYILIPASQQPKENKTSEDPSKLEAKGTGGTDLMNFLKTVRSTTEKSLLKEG
T2 sequence (P14902 whole entry): as above

Row | Compound | formation of tumors (LLC tumors) | growth of tumors (P815 tumor) | IC50 [1] [nM] | IC50 [2] [nM]
1 | Cn1cc(C[C@H](N)C(=O)O)c2ccccc21 [Example 1-MT, 1-methyl-tryptophan] | markedly delayed | inhibited |  | 
2 | OCc1nonc1C(=NO)NCc1cc(Br)ccc1F [Example 3] |  |  | < 1000 | < 500
3 | OCc1nonc1C(=NO)NCc1cc(Cl)ccc1Cl [Example 2] |  |  | < 5000 | 
4 | Cc1ccc(Cl)cc1CNC(=NO)c1nonc1CO [Example 1, N-(5-chloro-2-methylbenzyl)-N′-hydroxy-4-(hydroxymethyl)-1,2,5-oxadiazole-3-carboximidamide] |  |  | < 1000 | < 500
5 | Cc1ccc(C)c(CNC(=NO)c2nonc2CO)c1 [Example 4] |  |  | < 5000 | 
